Entries after “also recorded” stand apart in the source; their conditions may differ.
Columns and labels:
weeds [1] = assay: Ex10 PRE greenhouse; type: in vivo; conditions: 28 DAT, weed and rate in the words
[2] = system: weeds; corn, sweet corn, and sorghum; assay: Ex37 PRE greenhouse; type: in vivo; conditions: weed and rate in the words
Excerpt: S-metolachlor (DUAL II MAGNUM®, 82.4%) at 525 g ai/h plus atrazine at 560 g ai/h was included as a standard for comparison. […] Thereafter flats were watered and fertilized routinely.

weeds [3] = assay: Ex20 PRE greenhouse; type: in vivo; conditions: weed and rate in the words
Excerpt: Herbicides: • 2,4 DC-21 (36.7% CS): 125, 170, 210, or 250 g ai/ha alone and as tank-mix with dimethenamid-P • Dimethanamid-P (Outlook, 63.9%): 250, 375, 500 g ai/ha in combination with 2,4 DC and alone, additional treatment alone at 750 g ai/ha. • Metazachlor (Butisan 43.1%): 500 g ai/ha
Herbicides included as standards for comparison were metazachlor plus dimethenamid-P (500 g) as tank mix combination. […] Treatments were replicated 3 times. […] Thereafter flats were watered and fertilized routinely.

Common lambsquarters = assay: Ex34 PRE 2,4-DC + napropamide, % control, Colby; type: in vivo, Chenopodium album; conditions: 28 DAT
Excerpt: Thereafter flats were watered and fertilized routinely.

Wild buckwheat = assay: Ex12 PRE 2,4-DC + dimethenamid-P, % control 28 DAT, Colby; type: in vivo, Polygonum convolvulus
Procedure: The tested weeds include: wild buckwheat (Polygonum convolvulus, POLCO), velvetleaf (Abutilon theophrasti, ABUTH), cheat (Bromus secalinus, BROSE), wild oat (Avena fatua, AVEFA), radish (Raphanus sativus, RAPSN), corn poppy (Papaver rhoeas, PAPRH), yellow foxtail (Setaria pumila, SETLU), Italian ryegrass (Lolium perenne ssp. multiflorum, LOLMU). The tested crop was Oilseed rape.
This greenhouse study was conducted to assess the preemergence (PRE) weed control and oilseed rape tolerance with 2,4 DC (CS 36.7%) and dimethenamid-P (Outlook®, 63.9%) tank-mix combinations.
Metazachlor (Butisan, 43.1%) plus dimethenamid-P applied as tank mix at 500 g each was applied as commercial standard. Treatments were replicated 3 times and flats were watered after planting but before the treatment and then lightly watered after treatment application. Thereafter flats were watered and fertilized routinely.

Ivyleaf morningglory = assay: Ex17 PRE 2,4 DC + isoxaflutole, % control 28 DAT, Colby; type: in vivo, Ipomoea hederacea
Procedure: In this example a study was conducted to determine weed efficacy and sugarcane injury when 2,4 DC or isoxaflutole are applied either alone or tank-mix as preemergence against the weeds: Ivyleaf morningglory (Ipomoea hederacea, IPOHE), hairy beggartickss (Bidens pilosa, BIDPI), yellow nutsedge (Cyperus esculentus, CYPES), large crabgrass (Digitaria sanguinalis, DIGSA), and redroot pigweed (Amaranthus retroflexus, AMARE). The crop tested in this study was Sugarcane (var. CTC 20).
To determine weed efficacy and sugarcane selectivity, 2,4 DC (SC 36%) and isoxaflutole (Balance Flexx®, 20%) were applied PRE either alone or as tank-mix partners at rates mentioned below. 2,4 DC was applied at 500, 750, and 1000 g ai/ha while isoxaflutole was applied at 80, 100, and 120 g ai/ha. […] Treatments were applied PRE to sugarcane (var. CTC 20), ivyleaf morningglory, hairy beggarticks, yellow nutsedge, large crabgrass, and redroot pigweed. […] Soil was watered before application and watered lightly after application. Flats were watered and fertilized routinely after treatment application.

weeds [4] = assay: Ex24 PRE greenhouse; type: in vivo; conditions: weed and rate in the words
Excerpt: The tested weeds include Giant foxtail (Setaria faberi, SETFA), green foxtail (Setaria virdis, SETVI), yellow foxtail (Setaria pumila, SETLU), black nightshade (Solanum nigrum, SOLNI), kochia (Kochia scoparia, KCHSC), redroot pigweed (Amaranthus retroflexus, AMARE), common ragweed (Ambrosia artemisiifolia, AMBEL), barnyardgrass (Echinochloa crus-galli, ECHCG), large crabgrass (Digitaria sanguinalis, DIGSA).
To determine PRE efficacy, five levels of 2,4 DC-21 (36.7% CS) 0, 125, 170, 210, or 250 g ai/ha and five levels of pyroxasulfone (KIH485-85WG) 0, 50, 65, 80, or 95 g ai/ha were applied either alone or as tank-mix. Additional treatments consisted of premix of pyroxasulfone plus fluthiacet-methyl (Anthem™ 23.3%) at 169.9 g ai/ha, S-metolachlor (Dual II Magnum®, 82.4%) at 1388 g, and tank-mix of mesotrione (Callisto®, 40%) at 123 g plus S-metolachlor at 1252 g. […] Treatments were applied before the emergence of black nightshade, giant foxtail, green foxtail, yellow foxtail, large crabgrass, kochia, redroot pigweed, common ragweed, and bamyardgrass. […] Flats were watered and fertilized routinely after treatment application. Each treatment was replicated three times.

Pennsylvania smartweed = assay: Ex33 PRE 2,4-DC + fluthiacet-methyl + pyroxasulfone, % control 28 DAT, Colby; type: in vivo, Polygonum pensylvanicum
Excerpt: ANTHEM® (fluthiacet-methyl, 0.69% plus pyroxasulfone, 22.61%) was included as a standard at labeled rate, Fluthiacet-methyl at 4.9 g ai/ha and pyroxasulfone at 165 g ai/ha. […] The following weeds were screened, Palmer amaranth, Pennsylvania smartweed, velvetleaf, green foxtail, morningglory, Italian ryegrass, prickly sida, and yellow nutsedge. Crops screened were cotton, lentil, mung bean, bush bean, and cowpea. […] Thereafter flats were watered and fertilized routinely.

`CC1(C)CON(Cc2ccc(Cl)cc2Cl)C1=O` [2,4-DC, 2-(2,4-dichlorophenyl)methyl-4,4-dimethyl-3-isoxazolidinone] was tested, and the “weed control in words” value (weeds [1]) was “alone at 250 g ai/ha controlled common lambsquarters”, the “weed control in words” value [2] was “applied alone at ≥50 g ai/ha controlled barnyardgrass 28 DAT; also recorded: applied alone at ≥200 g controlled velvetleaf and redroot pigweed” and the “weed control in words” value (weeds [3]) was “applied alone at 125 g ai/ha controlled (≥85% injury) Canada thistle, giant foxtail, goosegrass, and common chickweed”. For the same molecule, the X (Common lambsquarters; 2,4-DC alone 31 g ai/ha) was 28%, the X (Common lambsquarters; 2,4-DC alone 63 g ai/ha) was 43% and the X (Common lambsquarters; 2,4-DC alone 125 g ai/ha) was 85%. For the same molecule, the X (Common lambsquarters; 2,4-DC alone 250 g ai/ha) was 91%, the X (Common lambsquarters; 2,4-DC alone 375 g ai/ha) was 93% and the X (Wild buckwheat; 2,4-DC alone 125 g ai/ha) was 8%. It also gave an X (Wild buckwheat; 2,4-DC alone 170 g ai/ha) of 25%, an X (Wild buckwheat; 2,4-DC alone 210 g ai/ha) of 28% and an X (Wild buckwheat; 2,4-DC alone 250 g ai/ha) of 38%. It also gave an X (Ivyleaf morningglory; 2,4-DC alone 500 g ai/ha) of 67%, an X (Ivyleaf morningglory; 2,4-DC alone 750 g ai/ha) of 78% and an X (Ivyleaf morningglory; 2,4-DC alone 1000 g ai/ha) of 88%. The “weed control in words” value (weeds [4]) was “alone controlled kochia at 210 g ai/ha, barnyardgrass and large crabgrass at 125 g, giant foxtail and green foxtail at 170 g”, the X (Pennsylvania smartweed; 2,4-DC alone 31 g ai/ha) was 10% and the X (Pennsylvania smartweed; 2,4-DC alone 63 g ai/ha) was 23%. The X (Pennsylvania smartweed; 2,4-DC alone 125 g ai/ha) was 57%, the X (Pennsylvania smartweed; 2,4-DC alone 250 g ai/ha) was 100% and the X (Pennsylvania smartweed; 2,4-DC alone 375 g ai/ha) was 99%.

— US12616203B2, “Use of 3-isoxazolidinones compounds as selective herbicides” (FMC Corporation, priority 2014, dated 2026)
